“Also recorded” adds a separate entry of the source.
Experiments:
phospholamban = molecular target: T1, phospholamban (Cavia porcellus, UniProt A0A286XLC6); assay: Calcium uptake assay (fluo-3) in SR vesicles from cardiac tissue; format: biochemical, guinea-pig; conditions: 50 and 100 µM; Figure 2A; three experiments per group
T1 construct: calcium uptake into the SR vesicles prepared from cardiac tissue; from tissue; host or cells: guinea-pig heart (ventricular myocardium), SR vesicle preparation
T1 sequence (A0A286XLC6 1-52): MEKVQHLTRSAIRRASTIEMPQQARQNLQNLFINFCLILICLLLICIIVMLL
Excerpt: (§1) The direct binding of a compound to the phospholamban protein can be ascertained by the circular dichroism (CD) spectroscopy. The methods for determining whether a compound relieves the inhibitory effect of phospholamban on SR Ca^2+-ATPase by direct binding to the phospholamban protein, i.e. is a phospholamban inhibitor, are illustrated in detail in the experimental section.
(§2) The effect on phospholamban of the compounds used in the invention was verified by measuring its effects on calcium uptake into the SR vesicles prepared from cardiac tissue and into vesicles prepared from fast skeletal muscle (psoas m.). […] The methods are described below in detail.
(§3) Guinea pigs (10-12) were decapited. Their hearts or the psoas muscles were excised, washed in ice-cold 0.9 % NaCl and cut into pieces in a buffer containing 20 mM Tris-maleate, 0.3 M sucrose, pH 7.0. Thereafter tissue pieces were homogenized with Polytron and further with Potter (10 strokes). The homogenate was centrifugated at 1000 g for 15 min at 4 °C. The supernatant was collected and the pellet was resuspended into 5 ml of the buffer (20 mM Tris-maleate, 0.3 M sucrose, pH 7.0) and recentrifugated at 1000 g for 10 min at 4 °C. The obtained supernatant was combined with the earlier collected supernatant and centrifugated once again at 10 000 g for 20 min at 4 °C. The final supernatant was filtered into a bottle equipped with a magnetic stirrer. KCl was added to the filtered supernatant to achieve the final concentration of 0.6 M (at 4 °C). The obtained solution was centrifugated at 100 000 g for 60 min at 4 °C. The pellet was suspended in 5 ml of the buffer containing 20 mM Tris-maleate, 0.3 M sucrose, pH 7.0 and centrifugated at 100 000 g for 60 min at 4 °C. The obtained pellet was suspended in 5 ml of buffer containing 20 mM Tris-maleate, 0.3 M sucrose, 0.1 M KCI, pH 7.0 and stored at -80 °C until use. The protein concentration was also measured in order to standardise the separately prepared vesicle preparations.
(§4) In the calcium uptake assay, the fluorescent indicator, fluo-3 was used to detect the decrease of the extravesicular Ca^2+-concentration, when the SR Ca^2+ATPase was transferring Ca^2+ from the extravesicular space into the SR-vesicles.
(§5) The SR-vesicles obtained above (50 µg protein/ml) were preincubated with or without the test compound at 37 °C for 5 min in the assay buffer containing 40 mM imidazole, 95 mM KCI, 5 mM NaN3, 5 mM MgCl2, 0.5 mM EGTA, 5 mM potassium oxalate, 2 µM ruthenium red, 5 µM fluo-3, pH 7.0. The free calcium was adjusted to 0.1 µM or to 0.04 µM by CaCl2. The reaction was initiated by adding ATP (5 mM). The final reaction volume was 1.5 ml. The fluorescence of reaction mixture was measured for 3 min by using the excitation and emission wavelengths of 510 nm and 530 nm, respectively.

SR Ca^2+-ATPase = assay: Calcium uptake assay (fluo-3) in SR vesicles from fast skeletal muscle (psoas m.), which contain no phospholamban; format: biochemical, guinea-pig; conditions: 50 and 100 µM; Figure 2B; three experiments per group
Excerpt: as §1, §2, §3, §4, §5

PLB[1-36 a.a.] = molecular target: T2, PLB[1-36 a.a.] (Homo sapiens, UniProt P26678); assay: Circular dichroism (CD) spectroscopy, binding to the cytosolic part of phospholamban; conditions: 50 µM in water, Fig. 1
T2 construct: N-terminal fragment of human phospholamban (PLB [1-36 a.a.]); made in house; host or cells: chemical peptide synthesis (no expression host)
T2 sequence (P26678 1-36 limits assumed): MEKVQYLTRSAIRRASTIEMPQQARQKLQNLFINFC
Procedure: (§6) Both the 36 amino acid N-terminal fragment of human phospholamban (PLB [1-36 a.a.]) and the 36 amino acid N-terminal fragment of double phosphorylated human phospholamban (PLB [1-36 a.a.](Ser16PO3-, Thr17PO3-)) were obtained by peptide synthesis. The peptides were purified by reverse phase HPLC, analysed for homogenity by mass spectrometry and were found pure at 97 %. The peptides were lyophilized and then resuspended in water at the final concentration of 0.1 mM, for CD analysis. The pH of both solutions was between 3 and 4 and was not further adjusted. Compound of Example 1c was solved in water at a final concentration of 0.1 mM. The pH was adjusted at 7.2 by adding 1 N NaOH.
(§7) Circular dichroism spectra were acquired at 24 °C on samples of 100 µl. The spectra were recorded on a Jasco J-720 spectropolarimeter using a 1 mm path-length quartz cuvette. The band width was 1 nm, the sensitivity 20 mdeg, the step resolution 0.5 nm, the response time 0.5 sec, and the scan speed 20 nm/min (from 250 to 190 nm). The spectra were expressed in [θ] x 10^-3 x degrees x cm^2 x dmol^-1.

[1] = molecular target: T3, PLB[1-36 a.a.](Ser16PO3-, Thr17PO3-) (Homo sapiens, UniProt P26678); assay: Circular dichroism (CD) spectroscopy, binding to double phosphorylated phospholamban fragment; conditions: 50 µM in water, Fig. 1
T3 construct: (PLB [1-36 a.a.](Ser16PO3-, Thr17PO3-)); made in house; host or cells: chemical peptide synthesis (no expression host)
T3 sequence (P26678 1-36): T2 sequence (P26678 1-36 limits assumed)
Procedure: as §6, §7

coronary arteries = assay: Coronary flow in isolated paced heart (Langendorff, constant pressure); set-up: species or system guinea-pig; conditions: 0.3 - 30 µM; six hearts paced at 250 beats/min; Figure 3A
Procedure: Guinea-pigs of either sex weighing 300-400 g were used in the study. After the guinea-pig was sacrificed by a blow on the skull and decapitated the heart was rapidly excised. The heart was then rinsed in cold oxygenated perfusion buffer. A cannula was inserted into the aorta and secured with a ligature. Retrograde perfusion began as soon as the heart was placed in a thermostatically controlled moist chamber of the Langendorff apparatus. Modified Tyrode solution (37 °C), equilibrated in a thermostatically controlled bulb oxygenator with carbogen (95 % O2 and 5% CO2) was used as a perfusion buffer. The composition of the Tyrode solution was (in mM): NaCl 135; MgCl2 x 6H2O 1; KCl 5; CaCl2 x 2H2O 2; NaHCO3 15; Na2HPO4 x 2H2O 1; glucose 10; pH 7.3-7.4. The experiments were carried out under constant pressure condition (50 mmHg). After a short prestabilization (10 min) a latex balloon (size 4) was carefully placed into the left ventricle through the left pulmonary vein and the left atrium. The latex balloon was attached to a stainless-steel cannula coupled with a pressure transducer. The latex balloon, the cannula and the chamber of the pressure transducer were filled with ethylene glycol / water (1:1) mixture avoiding any air-bubble. The isovolumetric left ventricular pressure was recorded through the pressure transducer. The maximal positive and negative derivatives of the left ventricular pressure were calculated by using the digitized pressure signals. At the beginning of the experiment, the volume of the balloon was adjusted to obtain a diastolic pressure of approximately 5 mmHg. Coronary flow (ml/min) was continuously recorded by an electromagnetic flow meter with a flow probe inserted above the aortic cannula. The heart was paced at 250 beats/min with a coaxial electrode localized on the surface of the right atrium. Before starting the experiment, the heart was allowed to stabilise further for 30 - 50 min with vehicle (0.1% DMSO) to reach a stable coronary flow.
After 15 min baseline recording various concentrations of the test compound of Example 1c were added to the perfusion buffer at 15 min intervals. The concentration range of 0.3 - 30 µM was tested. The vehicle concentration (0.1% DMSO) was kept constant throughout the experiment.

[2] = system: endothelial cells of the coronary vessels; assay: Coronary flow in freely beating isolated heart with and without Triton x 100 destruction of endothelial cells; set-up: species or system guinea-pig; conditions: 0.3 - 30 µM; Figures 4A and 4B
Procedure: Substance P, an endothelial-dependent vasodilator, was used as a reference compound. Triton x 100 was used to destroy the endothelial cells of the coronary vessels.
The experiment was carried out under constant pressure condition (50 mmHg) on freely beating heart. Coronary flow (ml / min) was continuously recorded by an electromagnetic flow meter with a flow probe inserted above the aortic cannula.
After 15 min baseline recording a bolus dose of substance P (0.1 µM / 0.3 ml) was added to the perfusion buffer via a side branch of the aortic cannula (Figure 4B). The addition of substance P was repeated twice before the injection of triton x 100 (0.05% / 0.2 ml) was given via a needle inserted into the cannula just above the aorta. After 85 min of triton x 100 injection a control dose of substance P was added twice to the perfusion buffer in order to check if the endothelial cells has destroyed. Thereafter the concentration range of 0.3 - 30 µM of the compound of Example 1c was tested. The vehicle concentration (0.1% DMSO) was kept constant throughout the experiment. A control experiment is shown in Figure 4A where the effect of Example 1 c is seen at the same concentration range when the […] is not disrupted by Triton x 100.

With `Cc1c(Cc2ccccc2)c(=O)oc2cc(OCc3nnn[nH]3)cc(OCc3nnn[nH]3)c12` [Example 1c, 3-Benzyl-5,7-bis[(1H -tetrazol-5-yl)methoxy]-4-methyl-2H-1-benzopyran-2-one] the “Ca^2+ uptake rate into the cardiac SR vesicles” value (phospholamban) was “accelerated the calcium uptake into the cardiac SR vesicles”, the “Ca^2+ uptake rate into the fast skeletal muscle SR vesicles” value (SR Ca^2+-ATPase) was “did not change the calcium uptake” and the “interaction with PLB[1-36 a.a.] (CD spectra)” value (PLB[1-36 a.a.]) was “forms a complex with PLB at their N-terminal domain; also recorded: interacts with the cytosolic part of phospholamban PLB[1-36 a.a.]”. For the same molecule, the “interaction with PLB[1-36 a.a.](Ser16PO3-, Thr17PO3-) (CD spectra)” value [1] was “does not interact or interacts weakly with the phosphorylated phospholamban”, the coronary flow (coronary arteries) was “increase in coronary flow” and the “mechanism of the vasodilatory effect (coronary flow with / without Triton x 100)” value [2] was “due to an endothelial-mediated mechanism”.

— patent EP1001774B1, “USE OF PHOSPHOLAMBAN INHIBITORS FOR INCREASING CORONARY FLOW” (ORION CORPORATION, priority 1997, dated 1999)
